Laboratory results: ChEMBL document CHEMBL4342466, “Novel, Self-Assembling Dimeric Inhibitors of Human β Tryptase” (J Med Chem, 2020)
Activity calls are given as the source filed them. The rule behind the calls is not given here.

What was measured:
[1] = Inhibition of human recombinant beta-tryptase pre-incubated for 3 hrs before N-tert-butoxycarbonyl-Gln-Ala-Arg-AMC substrate addition and measured every 30 secs for 15 mins by spectrometry
[2] = Stability in human liver microsomes assessed as parent compound remaining at 15 uM in absence of NADPH incubated for 60 mins; format: ADME, Microsome; conditions: for remaining at 1 h, 15 µM: liver microsomes, read-out: Stability; for Stability: microsomes, 1 h, 15 µM
Tryptase beta-2 = target: T1, Tryptase beta-2 (Mus musculus, UniProt P21845); experiment: Inhibition of mouse MCP6 pre-incubated for 3 hrs before N-tert-butoxycarbonyl-Gln-Ala-Arg-AMC substrate addition and measured every 30 secs for 15 mins by spectrometry
T1 sequence (P21845 whole entry): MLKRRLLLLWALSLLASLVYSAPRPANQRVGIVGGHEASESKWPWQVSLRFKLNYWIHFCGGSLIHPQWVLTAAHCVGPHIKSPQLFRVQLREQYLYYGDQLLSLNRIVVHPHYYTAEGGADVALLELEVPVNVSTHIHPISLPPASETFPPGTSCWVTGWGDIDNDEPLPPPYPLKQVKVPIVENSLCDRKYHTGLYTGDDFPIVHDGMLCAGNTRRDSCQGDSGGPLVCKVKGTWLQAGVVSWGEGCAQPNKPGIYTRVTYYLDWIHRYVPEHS

[3] = Stability in human liver microsomes assessed as parent compound remaining at 15 uM in presence of NADPH incubated for 60 mins; format: ADME, Microsome; conditions: for remaining at 1 h, 15 µM: liver microsomes, read-out: Stability; for Stability: microsomes, 1 h, 15 µM
[4] = Stability in human liver microsomes assessed as parent compound remaining at 15 uM in presence of UDPGA incubated for 60 mins; format: ADME, Microsome; conditions: for remaining at 1 h, 15 µM: liver microsomes, read-out: Stability; for Stability: microsomes, 1 h, 15 µM
[5] = Drug concentration in tumor of mouse xenografted with human HMC1 cells at 10 mg/kg, iv dosed at time 0 and again 24 hrs later and measured at 8 hrs after second dose by LC-MS/MS analysis; format: ADME, organism-based, Neoplasm; conditions: read-out: Drug uptake
[6] = Plasma concentration in mouse xenografted with human HMC1 cells at 10 mg/kg, iv dosed at time 0 and again 24 hrs later and measured at 24 hrs after second dose by LC-MS/MS analysis; format: ADME, organism-based
[7] = Drug concentration in tumor of mouse xenografted with human HMC1 cells at 10 mg/kg, iv dosed at time 0 and again 24 hrs later and measured at 0 hrs after second dose by LC-MS/MS analysis; format: ADME, organism-based, Neoplasm; conditions: read-out: Drug uptake
[8] = Plasma concentration in mouse xenografted with human HMC1 cells at 10 mg/kg, iv dosed at time 0 and again 24 hrs later and measured at 2 hrs after second dose by LC-MS/MS analysis; format: ADME, organism-based
[9] = Drug concentration in tumor of mouse xenografted with human HMC1 cells at 10 mg/kg, iv dosed at time 0 and again 24 hrs later and measured at 2 hrs after second dose by LC-MS/MS analysis; format: ADME, organism-based, Neoplasm; conditions: read-out: Drug uptake
[10] = Drug concentration in tumor of mouse xenografted with human HMC1 cells at 10 mg/kg, iv dosed at time 0 and again 24 hrs later and measured at 24 hrs after second dose by LC-MS/MS analysis; format: ADME, organism-based, Neoplasm; conditions: read-out: Drug uptake
[11] = Plasma concentration in mouse xenografted with human HMC1 cells at 10 mg/kg, iv dosed at time 0 and again 24 hrs later and measured at 8 hrs after second dose by LC-MS/MS analysis; format: ADME, organism-based
Mus musculus = experiment: Inhibition of tryptase activity in tumors of mouse xenografted with human HMC1 cells at 10 mg/kg, iv dosed at time 0 and again 24 hrs later and measured at 24 to 48 hrs after second dose; format: functional, organism-based
[12] = Lipophilicity, logD of the compound at pH 7.4; format: physicochemical; conditions: buffer
HMC1 [13] = experiment: Inhibition of beta-tryptase in human HMC1 cells assessed as effect on A23187-induced degranulation; format: cell-based
Homo sapiens = species: Homo sapiens; experiment: Inhibition of human recombinant beta-tryptase assessed as remaining enzyme activity at 10 uM pre-incubated for 3 hrs before N-tert-butoxycarbonyl-Gln-Ala-Arg-AMC substrate addition and measured after 8 hrs by spectrometry relative to control
HMC1 [14] = experiment: Inhibition of beta-tryptase in human HMC1 cells assessed as effect on tryptase activity by measured cell lysis; format: cell-based
[15] = Solubility of the compound; format: physicochemical
[16] = Tmax in C57BL/6 mouse at 50 mg/kg, po measured over 0.25 to 24 hrs by LC-MS/MS analysis; format: ADME, organism-based; conditions: in vivo
[17] = Half life in C57BL/6 mouse at 5 mg/kg, iv measured over 0.25 to 24 hrs by LC-MS/MS analysis; format: ADME, organism-based; conditions: in vivo
[18] = Time for Clast in C57BL/6 mouse at 50 mg/kg, po measured over 0.25 to 24 hrs by LC-MS/MS analysis; format: ADME, organism-based; conditions: in vivo
[19] = Time for Clast in C57BL/6 mouse at 5 mg/kg, iv measured over 0.25 to 24 hrs by LC-MS/MS analysis; format: ADME, organism-based; conditions: in vivo
[20] = Clearance in C57BL/6 mouse at 5 mg/kg, iv measured over 0.25 to 24 hrs by LC-MS/MS analysis; format: ADME, organism-based; conditions: in vivo

Structure (SMILES)	IC50 [1] [µM]	IC50 (Tryptase beta-2) [µM]	remaining at 1 h, 15 µM [3] [%]	remaining at 1 h, 15 µM [4] [%]	also measured
NCc1cccc(C2CCN(C(=O)c3ccc(CO)c(O)c3)CC2)c1	0.0658	1.55	68	81	remaining at 1 h, 15 µM [2]: 63%
NCc1ccc2c(c1)C1(CCN(C(=O)c3ccc(O)c(O)c3)CC1)CO2	0.635	2.54		87	remaining at 1 h, 15 µM [2]: 94%; Stability [3]: Stable
NCc1cccc(C2CCN(C(=O)c3cc(O)c(O)c(Cl)c3)CC2)c1	0.339	17.5	29	18	remaining at 1 h, 15 µM [2]: 28%
NCc1ccc2c(c1)C1(CCN(C(=O)c3cc(O)c(O)c(Cl)c3)CC1)CO2.O=C(O)C(F)(F)F					concentration at 8 h [5]: 58.6 nM; concentration at 24 h [6]: 0.02 nM; concentration at 0 h [7]: 17.6 nM; concentration at 2 h [8]: 311 nM; concentration at 2 h [9]: 314 nM; concentration at 24 h [10]: 8.64 nM; concentration at 8 h [11]: 1.28 nM
NCc1ccc2c(c1)C1(CCN(C(=O)c3ccc(Cl)c(-c4cccc(B(O)O)c4)c3)CC1)CO2	1.1	0.599			
NCc1ccc2c(c1)C1(CCN(C(=O)c3cccc(-c4cccc5c4COB5O)c3)CC1)CO2	1.5	2.89	82	82	inhibition (Mus musculus): inactive; logD [12]: 1.69
CONC(=O)c1cc(C(=O)N2CCC(c3cccc(CN)c3)CC2)ccc1O	3.31	0.455	84	68	remaining at 1 h, 15 µM [2]: 81%
NCc1ccc2c(c1)C1(CCN(C(=O)c3cccc(-c4cccc(B(O)O)c4)c3)CC1)CO2 [listing 1 of 2 here]					inhibition (Mus musculus): Active; inhibition (HMC1 [13]): Active; inhibition (Homo sapiens): inactive; inhibition (HMC1 [14]): inactive
COc1cc(C(=O)N2CCC(c3cccc(CN)c3)CC2)cc(O)c1O	0.925	7.43			
Cc1cc(C(=O)N2CCC(c3cccc(CN)c3)CC2)cc(-c2cccc(B(O)O)c2)c1C	1.25				
NCc1ccc2c(c1)C1(CCN(C(=O)c3cc(O)c(O)c(Cl)c3)CC1)CO2 [listing 1 of 2 here]	0.238	11.7			solubility [15]: Soluble; Tmax [16]: 15 min; half-life [17]: > 360 min; Time [18]: 24 h; Time [19]: 8 h
NCc1cccc(C2CCN(C(=O)c3ccc(O)c(O)c3)CC2)c1	0.452	2.31	52	53	remaining at 1 h, 15 µM [2]: 43%; half-life [17]: 45.6 min; clearance [20]: 519 mL/min/kg
CONC(=O)c1ccc(C(=O)N2CCC(c3cccc(CN)c3)CC2)cc1O	0.12				Stability [2]: Stable; Stability [3]: Stable; Stability [4]: Stable
CONC(=O)c1cc(C(=O)N2CCC3(CC2)COc2ccc(CN)cc23)ccc1O	0.57	2.16	87	67	Stability [2]: Stable
Cc1cc(C(=O)N2CCC3(CC2)COc2ccc(CN)cc23)cc(-c2cccc(B(O)O)c2)c1C	1.36				
CONC(=O)c1ccc(C(=O)N2CCC3(CC2)COc2ccc(CN)cc23)cc1O	0.0434				Stability [2]: Stable; Stability [3]: Stable; Stability [4]: Stable
CSc1sc(C(=O)N2CCC(c3cccc(CN)c3)CC2)cc1-c1cccc2c1COB2O	0.0142				
NCc1ccc2c(c1)C1(CCN(C(=O)c3ccc(CO)c(O)c3)CC1)CO2	0.656	4.69			Stability [2]: Stable; Stability [3]: Stable; Stability [4]: Stable
NCc1cccc(C2CCN(C(=O)/C=C/c3ccc4c(c3)OB(c3ccc5cccc(C(=O)N6CCC(c7cccc(CN)c7)CC6)c5c3)O4)CC2)c1	0.411				
NCc1cccc(C2CCN(C(=O)c3cccc(-c4cccc(B(O)O)c4)c3)CC2)c1	0.843	1.42	2	1	remaining at 1 h, 15 µM [2]: 1%; half-life [17]: 216 min; clearance [20]: 52.5 mL/min/kg
NCc1ccc2c(c1)C1(CCN(C(=O)c3cc(O)c(O)c(Cl)c3)CC1)CO2 [listing 2 of 2 here]					inhibition (Mus musculus): Active; inhibition (HMC1 [13]): Active; inhibition (Homo sapiens): inactive; inhibition (HMC1 [14]): inactive
NCc1ccc2c(c1)C1(CCN(C(=O)c3cccc(-c4cccc(B(O)O)c4)c3)CC1)CO2 [listing 2 of 2 here]	1.22	1.14	96	94	solubility [15]: Soluble; remaining at 1 h, 15 µM [2]: 85%; Tmax [16]: 30 min; half-life [17]: > 360 min; Time [18]: 8 h; logD [12]: 1.22; Time [19]: 24 h
COc1cc(C(=O)N2CCC3(CC2)COc2ccc(CN)cc23)cc(O)c1O	0.953	11.8	74	72	Stability [2]: Stable
CSc1sc(C(=O)N2CCC3(CC2)COc2ccc(CN)cc23)cc1-c1cccc2c1COB2O	0.018				Stability [2]: Stable; Stability [3]: Stable; Stability [4]: Stable
